pKd: −log10 of the molar value. “And” between values parts separate entries of the source, which are not always exact repeats. Equal entries are not always repeated.
How the values were obtained:
[1] = biological target: T1, glyceraldehyde 3-phosphate dehydrogenase (PfGAPDH, wild-type) (Plasmodium falciparum, UniProt Q8IKK7); experiment: Michaelis-Menten kinetics of purified enzyme (Abs340, NADH formation); format: biochemical
T1 construct: gene PF3D7_1462800; recombinant PfGAPDH, N-terminal 6x-His tag, N-term and C-term modifications for improved solubility

[2] = biological target: T2, glyceraldehyde 3-phosphate dehydrogenase (PfGAPDH I209T) (Plasmodium falciparum, UniProt Q8IKK7, I209T); experiment: heme titration by absorption spectroscopy (purified protein); format: binding
T2 construct: gene PF3D7_1462800; recombinant PfGAPDH, N-terminal 6x-His tag, N-term and C-term modifications for improved solubility

[3] = biological target: T1, glyceraldehyde 3-phosphate dehydrogenase (PfGAPDH, wild-type); experiment: heme titration by absorption spectroscopy (purified protein); enzyme inhibition also measured, EC50 =[…]; format: binding
[4] = biological target: Plasmodium falciparum glyceraldehyde 3-phosphate dehydrogenase I209T variant (recombinant) (Plasmodium falciparum) (UniProt Q8IKK7); experiment: SEC; analytical size exclusion chromatography; 1mg of purified protein in 1mL of FPLC buffer (100mM Tris-HCl pH 7.5, 1mM MgCl2, 1mM DTT, 10% w/v glycerol); all proteins prepped the same day and dialyzed in the same buffer the night before at 4°C
[5] = biological target: Plasmodium falciparum glyceraldehyde 3-phosphate dehydrogenase V238A variant (recombinant) (Plasmodium falciparum) (UniProt Q8IKK7); experiment: as above
[6] = biological target: Plasmodium falciparum glyceraldehyde 3-phosphate dehydrogenase, wild type (recombinant) (Plasmodium falciparum) (UniProt Q8IKK7); experiment: as above

O=C[C@H](O)COP(=O)(O)O [D-glyceraldehyde 3-phosphate]
Michaelis-Menten kinetics of purified enzyme (Abs340, NADH formation) [1]: FSM-resistant and wild-type enzymes shared Michaelis-Menten constants for all three substrates NAD+, GAP, and Pi

NC(=O)c1ccc[n+]([C@@H]2O[C@H](COP(=O)([O-])OP(=O)(O)OC[C@H]3O[C@@H](n4cnc5c(N)ncnc54)[C@H](O)[C@@H]3O)[C@@H](O)[C@H]2O)c1 [NAD+]
Michaelis-Menten kinetics of purified enzyme (Abs340, NADH formation) [1]: FSM-resistant and wild-type enzymes shared Michaelis-Menten constants for all three substrates NAD+, GAP, and Pi

C=CC1=C(C)C2=Cc3c(C=C)c(C)c4[n]3[Fe][n]3c(c(C)c(CCC(=O)O)c3=CC3=NC(=C4)C(C)=C3CCC(=O)O)=CC1=N2 [heme]
pKd [2]: 5.74
pKd [3]: 6.13

Plasmodium falciparum glyceraldehyde 3-phosphate dehydrogenase I209T variant (recombinant) (from UniProt Q8IKK7 4-335) (enzyme)
stoichiometry N [4]: 4 and 2

Plasmodium falciparum glyceraldehyde 3-phosphate dehydrogenase V238A variant (recombinant) (from UniProt Q8IKK7 4-335) (enzyme)
stoichiometry N [5]: 4 and 2

Plasmodium falciparum glyceraldehyde 3-phosphate dehydrogenase, wild type (recombinant) (from UniProt Q8IKK7 4-335) (enzyme)
stoichiometry N [6]: 4

Reference: article PMC9512246, “GAPDH mediates drug resistance and metabolism in Plasmodium falciparum malaria parasites” (PLoS Pathogens, 2022)
